The conditions of data set [1]: test infusion, 500 μL to each motor cortex.
Data set [2] deals with release of neurotransmitters including acetylcholine, norepinephrine, and glutamate. Conditions: in vivo; cited from earlier work.

`[Gd]` [gadolinium]: the motor cortical coverage result in data set [1] was “satisfactory motor cortical coverage”.
For the molecule Botulinum toxin type A, the “period of reversible inhibition of neurotransmitter release” value in data set [2] is on record as 2-6 months.

Source of the values: patent US12453784B2 (priority 2018, dated 2025).
